“And” between values parts separate entries of the source, which are not always exact repeats. Equal values may be shown once. Read-outs that look alike come from different tables or passages of the source.
Legend:
[1] = biological target: T1, PSMA (Homo sapiens, UniProt Q04609); assay: fluorescence-based PSMA inhibition assay (NAAG hydrolysis, Amplex Red); format: biochemical; conditions: for Ki: LNCaP cell lysates, 4 μM NAAG, Cheng-Prusoff conversion; for increase in binding affinity (Ki) compared to monovalent 1: relative to compound 1
T1 construct: endogenous in cells; host or cells: LNCaP cell lysate
T1 sequence (Q04609 whole entry): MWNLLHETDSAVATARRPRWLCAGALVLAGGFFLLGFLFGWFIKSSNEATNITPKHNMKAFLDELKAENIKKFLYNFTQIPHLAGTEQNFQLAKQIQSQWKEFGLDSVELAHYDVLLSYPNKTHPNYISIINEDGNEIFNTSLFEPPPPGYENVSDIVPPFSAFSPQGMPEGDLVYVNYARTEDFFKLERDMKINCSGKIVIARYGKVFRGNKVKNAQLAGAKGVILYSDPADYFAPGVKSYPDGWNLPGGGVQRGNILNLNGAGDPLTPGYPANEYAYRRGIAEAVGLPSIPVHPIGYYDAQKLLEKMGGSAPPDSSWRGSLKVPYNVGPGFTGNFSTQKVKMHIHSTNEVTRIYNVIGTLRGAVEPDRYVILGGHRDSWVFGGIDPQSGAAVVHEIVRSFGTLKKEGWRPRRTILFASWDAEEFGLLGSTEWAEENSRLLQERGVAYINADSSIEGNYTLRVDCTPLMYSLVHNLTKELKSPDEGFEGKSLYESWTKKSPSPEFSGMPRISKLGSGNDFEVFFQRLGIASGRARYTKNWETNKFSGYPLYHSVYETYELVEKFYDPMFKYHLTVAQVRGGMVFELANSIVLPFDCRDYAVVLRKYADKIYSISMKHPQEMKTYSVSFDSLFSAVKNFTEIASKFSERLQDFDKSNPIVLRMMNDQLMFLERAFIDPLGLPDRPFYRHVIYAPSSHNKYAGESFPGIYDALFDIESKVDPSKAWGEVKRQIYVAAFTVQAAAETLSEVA
Procedure: PSMA inhibition constant (Ki) values for 1 - 3 were determined using a fluorescence-based PSMA inhibition assay. […] Compound 6 was radiolabeled with ^99mTc and its biological properties were tested in vivo [34].
The PSMA inhibitory activities of 1 - 3 and [^113/115In]3 were determined using a fluorescence-based assay according to a previously reported procedure. Briefly, lysates of LNCaP cell extracts (25 μL) were incubated with the inhibitor (12.5 μL) in the presence of 4 μM NAAG (12.5 μL) for 120 min. The amount of glutamate released upon hydrolysis of NAAG was measured by incubating with a working solution (50 μL) of the Amplex Red Glutamic Acid Kit (Life Technologies, Grand Island, NY) for 60 min. Fluorescence was measured with a VICTOR3V multilabel plate reader (Perkin Elmer Inc., Waltham, MA) with excitation at 530 nm and emission at 560 nm. […] Assays were performed in triplicate. Enzyme inhibitory constants (Ki values) were generated using the Cheng-Prusoff conversion. Data analysis was performed using GraphPad Prism version 4.00 for Windows (GraphPad Software, San Diego, CA).

[2] = biological target: T1, PSMA; design: method as in earlier work; conditions: separate previous experiment; cited from earlier work

**Q.** Which Ki [1] does the source give for `[N-]=[N+]=NCCCCC(NC(=O)CCCCCCC(=O)NCCCC[C@H](NC(=O)N[C@@H](CCC(=O)O)C(=O)O)C(=O)O)C(=O)O` (stereo partly drawn) [Compound 1, (3S,7S)-26-Azido-5,13,20-trioxo-4,6,12,21-tetraazahexacosane-1,3,7,22-tetracarboxylic acid] here?
**A.** 0.9 nM and 0.91 nM

**Q.** What does the source list for `NCCCCC(NC(=O)C(CCCCNC(=O)c1cn(CCCCC(NC(=O)CCCCCCC(=O)NCCCC[C@H](NC(=O)N[C@@H](CCC(=O)O)C(=O)O)C(=O)O)C(=O)O)nn1)NC(=O)c1cn(CCCCC(NC(=O)CCCCCCC(=O)NCCCC[C@H](NC(=O)N[C@@H](CCC(=O)O)C(=O)O)C(=O)O)C(=O)O)nn1)C(=O)O` (stereo partly drawn) [Compound 2]?
**A.** Ki [1]: 0.1 nM; increase in binding affinity (Ki) compared to monovalent 1 [1]: 5 fold and ~ 5 fold

**Q.** Which Ki [1] does the source give for `O=C(O)CC[C@H](NC(=O)N[C@@H](CCCCNC(=O)CCCCCCC(=O)NC(CCCCn1cc(C(=O)NCCCCC(NC(=O)c2cn(CCCCC(NC(=O)CCCCCCC(=O)NCCCC[C@H](NC(=O)N[C@@H](CCC(=O)O)C(=O)O)C(=O)O)C(=O)O)nn2)C(=O)NC(CCCCNC(=O)CN2CCN(CC(=O)O)CCN(CC(=O)O)CCN(CC(=O)O)CC2)C(=O)O)nn1)C(=O)O)C(=O)O)C(=O)O` (stereo partly drawn) [Compound 3] here?
**A.** 0.08 nM

**Q.** And the “increase in binding affinity (Ki) compared to monovalent 1” value [1]?
**A.** 11 fold and ~ 11 fold

**Q.** For `NC(Cc1cn(CCCCC(NC(=O)CCCCCCC(=O)NCCCC[C@H](NC(=O)N[C@@H](CCC(=O)O)C(=O)O)C(=O)O)C(=O)O)nn1)C(=O)O` (stereo partly drawn) [Compound 6], which Ki [2] is on record?
**A.** 0.92 nM

Reference: paper PMC3282081, “A Modular Strategy to Prepare Multivalent Inhibitors of Prostate-Specific Membrane Antigen (PSMA)” (Oncotarget, 2011)
